Results taken from patent US9493663B2, “Photopolymerizable inkjet ink, ink cartridge, and printer” (RICOH COMPANY, LTD., priority 2011, dated 2016).

assay: skin sensitization test (LLNA, Local Lymph Node Assay, OECD test guideline 429), Stimulation Index; type: in vivo; conditions: SI less than 3 judged negative
Source text: As described in literatures (for example, “Functional Material” (Kino Zairyou) 2005, September, Vol. 25, No. 9, p. 55), the compound having a Stimulation Index (SI value) of less than 3, where the Stimulation Index indicates the extent of skin sensitization, is judged as being negative for skin sensitization. […] The lower SI value means lower skin sensitization. […] The SI value of the monomer or the oligomer used is preferably 2 or lower, more preferably 1.6 or lower.
The description “negative” or “none” is equivalent to the SI value of less than 3.

First: Tricyclodecanedimethanol dimethacrylate [Example A6]
Second: Polyethoxylated tetramethylolmethane tetraacrylate [Example A9]
The “SI value (Stimulation Index)” value of the first is lower: 1.3 for the first, 1.7 for the second.

First: Polyethylene glycol dimethacrylate represented by General Formula (1) (n is nearly equal to 2) [Example A23]
Second: C=C(C)C(=O)OCC(CC)(COC(=O)C(=C)C)COC(=O)C(=C)C [Example A5, Trimethylolpropane trimethacrylate]
The “SI value (Stimulation Index)” value of the first is lower: 1.1 for the first, 1.9 for the second.

Compared with “γ-Butyrolactone methacrylate [Example A4]”, `C=C(C)C(=O)OCC(C)(C)COC(=O)C(=C)C` [Example A1, Neopentyl glycol dimethacrylate] is lower in “SI value (Stimulation Index)” value: 2.1 for the first, 2.0 for the second.

Compared with “Polyethylene glycol dimethacrylate represented by General Formula (1) (n is nearly equal to 14) [Example A3]”, `C=CC(=O)OCCCCCCCCCCCCCCCCCC` [Example A12, Stearyl acrylate] is higher in “SI value (Stimulation Index)” value: 1.6 for the first, 2.7 for the second.

First: Polyethylene glycol dimethacrylate represented by the following General Formula (1) (n is nearly equal to 9) [Example A2]
Second: Polypropylene glycol diacrylate [Example A14, Polypropylene glycol diacrylate [CH2═CH—CO—(OC3H6)n—OCOCH═CH2 (n is nearly equal to 12)]]
The “SI value (Stimulation Index)” value of the first is lower: 1.3 for the first, 1.5 for the second.

Compared with `C=CC(=O)OCCCCCCCCCCCCCCCC(C)C` [Example A19, Isostearyl acrylate], `C=C(C)C(=O)OCCCCOC(=O)C(=C)C` [Example A13, 1,4-Butanediol dimethacrylate] is higher in “SI value (Stimulation Index)” value: 1.4 for the first, 2.6 for the second.

With `C=C(C)C(=O)OCCCCCCCCCCCCCCCCCC` [Example A21, Stearyl methacrylate] the “SI value (Stimulation Index)” value was 1.2.

assay: not given; conditions: MSDS; equivalent to SI value of less than 3; cited from earlier work

In the case of “Caprolactone-modified dipentaerythritol hexaacrylate [Example A7]”, the “skin sensitization evaluated in MSDS” value is listed as “negative”.

same assay, conditions: literature; equivalent to SI value of less than 3; cited from earlier work

In the case of `C=C(C)C(=O)OC(C)(C)C` [Example A15, t-Butyl methacrylate], the “skin sensitization evaluated in literature” value is given as “negative”.
For `C=C(C)C(=O)OCCCCC` [Example A16, n-Pentyl methacrylate], the “skin sensitization evaluated in literature” value is listed as “negative”.
In the case of `C=C(C)C(=O)OCCCCCC` [Example A17, n-Hexyl methacrylate], the “skin sensitization evaluated in literature” value is given as “negative”.
